Assay results taken from publication PMC6337261, “Short Peptides with Uncleavable Peptide Bond Mimetics as Photoactivatable Caspase-3 Inhibitors” (Molecules, 2019).

Assays:
[1] = tested on: caspase-3; assay: ESI-MS on purified caspase-3 (covalent modification); type: binding; conditions: 10a under irradiation at 365 nm
Excerpt: Our probes were designed to irreversibly photocrosslink to caspase-3. In order to show covalent complex formation, we made use of the alkyne function located at the N-terminus of all probes by installing a tetramethyl rhodamine fluorophore (TAMRA) via copper(I)-catalyzed azide alkyne cycloaddition. […] To exclude that this observation was due to our gel-based read-out, we also performed mass spectrometry experiments. […] This mass shift corresponded to the covalent modification (Figure 3C).
Intact proteins were analyzed on an orbitrap Fusion Lumos mass spectrometer equipped with a nanoelectrospray ion source (Thermo Fischer, Dreieich, Germany). Sample desalting was performed using Amicon Ultra-0.5 3K NMWL centrifugal filters (Merck Millipore, Darmstadt, Germany) according to the manufacturer’s protocol and samples were brought to a final concentration of approx. 1 pmol/µL (in 25% MeOH and 0.5% formic acid). […]
Figure 3 Non-covalent inhibition of caspase-3 by compounds 9 and 10. […] (G) UV irradiation of ψ(CH2NH) peptides 14 and 15 in the presence of benzophenone leads to inhibition of caspase-3, as monitored by competitive ABPP. […] Ac-DEVD-aldehyde (100 nM) was used as a control compound, whereas 9a and 10a (10 μM) were irradiated for 10 min and reacted with sodium bisulfite for an additional 20 min before 30 min incubation with caspase-3 and read-out with a fluorescent caspase ABP.

[2] = LC-MS analysis of probes before and after UV irradiation; type: physicochemical; conditions: irradiation at 365 nm, gradient 10% to 95% acetonitrile with 0.1% formic acid
Method: Compounds were irradiated with UV light of 365 nm for 30 min and after removal of the light source added to caspase-3. Residual caspase activity was measured by using a fluorescent caspase ABP as in our previous experiments above.
Although this points towards a cyclization rather than reaction with a water molecule, it is not clear whether it leads to a potent caspase inhibitor. […] Therefore, cyclization seemed improbable, as this would most likely lead to a shift in retention time. We hypothesized that irradiation could potentially lead to oxidation of a very small amount of the ψ(CH2NH) moiety with benzophenone as a photosensitizer, resulting in minute quantities of aldehydes that were not detected on LC-MS, but were sufficient for caspase-3 inhibition. Oxidation of secondary amines under influence of benzophenone has been reported before. […] Note that triazoles cannot undergo this transformation, further explaining their inactivity. The oxidation hypothesis was supported by an experiment in which ψ(CH2NH) peptides 14 and 15, not containing a benzophenone, were irradiated in the presence of 1 eq of spiked-in benzophenone (Figure 3G–I).
All materials were purchased from Sigma Aldrich GmbH (GmbH, Darmstadt, Germany), Carl Roth GmbH + Co. KG (Karlsruhe, Germany), Thermo Fischer Scientific Inc. (Dreieich, Germany), Rapp Polymere GmbH (Tübingen, Germany), Applichem GmbH (Darmstadt, Germany), VWR International GmbH (Darmstadt, Germany), Merck KGaA (Darmstadt, Germany), CreoSalus Inc. (Louisville, KY, USA), and Iris Biotech GmbH (Marktredwitz, Germany) and were used as received, unless otherwise noted. TLC was performed on pre-coated ALUGRAM SIL G plates with detection by a handheld UV lamp (254 nm) and subsequent staining with potassium permanganate, p-anisaldehyde, ninhydrin or cerium ammonium molybdate. LC-MS analysis was performed on a Thermo LCQ Fleet HPLC-MS/MS system using a gradient of 10% to 95% acetonitrile containing 0.1% formic acid. NMR spectra were recorded on a Bruker Avance DRX 400 spectrometer with tetramethylsilane as internal standard. High resolution ESI-FTMS was performed on a Thermo Scientific LTQ Orbitrap Velos Pro mass spectrometer.

**Q.** Which “Covalent modification of caspase-3 (mass shift, ESI-MS)” value [1] does the source give for “Hexynoyl-Asp-Glu-Val-Aspψ(CH2NH)-Ala-Bpa-NH2 [10a]” here?
**A.** did not reveal any modification

**Q.** What about the “Change of probe upon UV irradiation (LC-MS before and after)” value [2] of the same substance?
**A.** did not show obvious changes
